According to ChEMBL document CHEMBL3600337, “Chemoenzymatic synthesis and cytotoxicity of oenanthotoxin and analogues” (Bioorg Med Chem, 2015):

Tests used:
HT-29 = test: Cytotoxicity against human HT-29 cells after 96 hrs by sulforhodamine B assay; type: functional, cell-based; conditions: HT-29, 96 h
[1] = Cytotoxicity against human 518A2 cells after 96 hrs by sulforhodamine B assay; type: functional, cell-based; conditions: 518A2, 96 h
8505C = test: Cytotoxicity against human 8505C cells after 96 hrs by sulforhodamine B assay; type: functional, cell-based
A2780 = test: Cytotoxicity against human A2780 cells after 96 hrs by sulforhodamine B assay; type: functional, cell-based; conditions: A2780, 96 h
MCF7 = test: Cytotoxicity against human MCF7 cells after 96 hrs by sulforhodamine B assay; type: functional, cell-based; conditions: MCF7, 96 h
[2] = Cytotoxicity against mouse NIH/3T3 cells after 96 hrs by sulforhodamine B assay; type: cell-based; conditions: NIH3T3, 96 h
A549 = test: Cytotoxicity against human A549 cells after 96 hrs by sulforhodamine B assay; type: functional, cell-based; conditions: A549, 96 h

**Q.** Which EC50 (HT-29) does the source give for `CCCC(=O)CC/C=C/C=C/C#CC#C/C=C/COC(=O)c1ccccc1` here?
**A.** 7.9 µM

**Q.** And the EC50 [1]?
**A.** 20.5 µM

**Q.** What about the EC50 (8505C) of the same compound?
**A.** 4.2 µM

**Q.** What about the EC50 (A2780) of the same compound?
**A.** > 30 µM

**Q.** And the EC50 (MCF7)?
**A.** > 30 µM

**Q.** What about the EC50 [2] of the same compound?
**A.** 26.7 µM

**Q.** And the EC50 (A549)?
**A.** 14.4 µM

**Q.** Which results are given for `CCCC(=O)CC/C=C/C=C/C#CC#C/C=C/C(=O)O`?
**A.** EC50 (HT-29): > 30 µM; EC50 [1]: > 30 µM; EC50 (8505C): 19.3 µM; EC50 (A2780): > 30 µM; EC50 (MCF7): > 30 µM; EC50 [2]: > 30 µM; EC50 (A549): > 30 µM

**Q.** For `CCCC(=O)CC/C=C/C=C/C#CC#C/C=C/C=O`, which EC50 (HT-29) is on record?
**A.** 22.2 µM

**Q.** What about the EC50 [1] of the same compound?
**A.** > 30 µM

**Q.** And the EC50 (8505C)?
**A.** 7.1 µM

**Q.** What about the EC50 (A2780) of the same compound?
**A.** 7 µM

**Q.** What about the EC50 (MCF7) of the same compound?
**A.** 5.9 µM

**Q.** And the EC50 [2]?
**A.** 13.2 µM

**Q.** What about the EC50 (A549) of the same compound?
**A.** > 30 µM

**Q.** Which EC50 (HT-29) does the source give for `CCC[C@@H](O)CC/C=C/C=C/C#CC#C/C=C/COC(C)=O` here?
**A.** 26.3 µM

**Q.** And the EC50 [1]?
**A.** 14.9 µM

**Q.** And the EC50 (8505C)?
**A.** 20.3 µM

**Q.** And the EC50 (A2780)?
**A.** 6.8 µM

**Q.** And the EC50 (MCF7)?
**A.** 21.3 µM

**Q.** What about the EC50 [2] of the same compound?
**A.** 16.9 µM

**Q.** What about the EC50 (A549) of the same compound?
**A.** 20.5 µM

**Q.** For `C=C(C)[C@@H]1CC[C@]2(C(=O)O)CC[C@]3(C)[C@H](CC[C@@H]4[C@@]5(C)CC[C@H](O)C(C)(C)[C@@H]5CC[C@]43C)[C@@H]12` [BETULINIC ACID], which EC50 (HT-29) is on record?
**A.** 13.1 µM

**Q.** And the EC50 [1]?
**A.** 11.9 µM

**Q.** What about the EC50 (8505C) of the same compound?
**A.** 6.7 µM

**Q.** What about the EC50 (A2780) of the same compound?
**A.** 11 µM

**Q.** What about the EC50 (MCF7) of the same compound?
**A.** 14.9 µM

**Q.** And the EC50 [2]?
**A.** 10 µM

**Q.** What about the EC50 (A549) of the same compound?
**A.** 14.8 µM

**Q.** For `CCCC(=O)CC/C=C/C=C/C#CC#C/C=C/COC(C)=O`, which EC50 (HT-29) is on record?
**A.** > 30 µM

**Q.** And the EC50 [1]?
**A.** 9.1 µM

**Q.** And the EC50 (8505C)?
**A.** 15.6 µM

**Q.** What about the EC50 (A2780) of the same compound?
**A.** 4.7 µM

**Q.** What about the EC50 (MCF7) of the same compound?
**A.** 21.6 µM

**Q.** And the EC50 [2]?
**A.** 14.2 µM

**Q.** What about the EC50 (A549) of the same compound?
**A.** 56.4 µM

**Q.** Which EC50 (HT-29) does the source give for `CCCC(=O)CC/C=C/C=C/C#CC#C/C=C/COC(=O)CCl` here?
**A.** > 30 µM

**Q.** What about the EC50 [1] of the same compound?
**A.** 12.6 µM

**Q.** What about the EC50 (8505C) of the same compound?
**A.** 19.3 µM

**Q.** And the EC50 (A2780)?
**A.** 3.6 µM

**Q.** What about the EC50 (MCF7) of the same compound?
**A.** 26.9 µM

**Q.** What about the EC50 [2] of the same compound?
**A.** 11.9 µM

**Q.** And the EC50 (A549)?
**A.** 5.1 µM

**Q.** Which EC50 (HT-29) does the source give for `CCCC(=O)CC/C=C/C=C/C#CC#C/C=C/CO` here?
**A.** 21.2 µM

**Q.** What about the EC50 [1] of the same compound?
**A.** 19.1 µM

**Q.** And the EC50 (8505C)?
**A.** 18 µM

**Q.** And the EC50 (A2780)?
**A.** 4.9 µM

**Q.** What about the EC50 (MCF7) of the same compound?
**A.** 234 µM

**Q.** And the EC50 [2]?
**A.** 11.1 µM

**Q.** What about the EC50 (A549) of the same compound?
**A.** 19.7 µM

**Q.** With `CCC[C@@H](CC/C=C/C=C/C#CC#C/C=C/COC(C)=O)OC(C)=O` as the compound, how does the EC50 (HT-29) read?
**A.** 17.9 µM

**Q.** And the EC50 [1]?
**A.** 14.7 µM

**Q.** And the EC50 (8505C)?
**A.** 16.8 µM

**Q.** What about the EC50 (A2780) of the same compound?
**A.** 3.9 µM

**Q.** And the EC50 (MCF7)?
**A.** 12.4 µM

**Q.** What about the EC50 [2] of the same compound?
**A.** 11.8 µM

**Q.** And the EC50 (A549)?
**A.** 14.5 µM

**Q.** For `CCC[C@@H](O)CC/C=C/C=C/C#CC#C/C=C/CO` [OENANTHOTOXIN], which EC50 (HT-29) is on record?
**A.** > 30 µM

**Q.** And the EC50 [1]?
**A.** 17.1 µM

**Q.** And the EC50 (8505C)?
**A.** 10.5 µM

**Q.** What about the EC50 (A2780) of the same compound?
**A.** 3.8 µM

**Q.** And the EC50 (MCF7)?
**A.** 20.6 µM

**Q.** What about the EC50 [2] of the same compound?
**A.** 10.1 µM

**Q.** What about the EC50 (A549) of the same compound?
**A.** 10.9 µM
